Experimental data: PubChem BioAssay AID330 (DTP/NCI, 2004)
Values joined by “and” are separate entries in the source; they are usually repeats but may differ in a detail not shown here. Identical values can stand only once. Inconclusive results and toxic doses are left out. The calls were made as follows: active = survival T/C of 150% or more; inactive = T/C below 125% in these data. Peptide text beside a SMILES is read from it. * marks the point of attachment. Boc = CC(C)(C)OC(=O)*; NHNH2 = NN*

Tested on: P388 leukemia ip, CD2F1 mice, survival T/C
Assay: NCI In Vivo Anticancer Drug Screen. Data for tumor model P388 Leukemia (intraperitoneal) in CD2F1 (CDF1) mice
Details: endpoint: median survival time, higher = longer survival
Summary of the method: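 Mice carrying the transplanted tumor received test compound or vehicle. Survival was recorded in each group, and the value is the treated-group measurement divided by that of the vehicle-treated control group.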

[1] = dose: 50.0 mg/kg/injection, schedule: Q01DX009 (ip), vehicle: Klucel (hydroxypropylcellulose) (HPC)
[2] = dose: 100.0 mg/kg/injection, schedule: Q01DX009 (ip), vehicle: Klucel (hydroxypropylcellulose) (HPC)
[3] = dose: 200.0 mg/kg/injection, schedule: Q01DX009 (ip), vehicle: Klucel (hydroxypropylcellulose) (HPC)
[4] = dose: 100.0 mg/kg/injection, schedule: Q04DX002 (ip), vehicle: saline with Tween-80
[5] = dose: 200.0 mg/kg/injection, schedule: Q04DX002 (ip), vehicle: saline with Tween-80
[6] = dose: 400.0 mg/kg/injection, schedule: Q04DX002 (ip), vehicle: saline with Tween-80
[7] = dose: 200.0 mg/kg/injection, schedule: Q01DX009 (ip), vehicle: saline with Tween-80
[8] = dose: 12.5 mg/kg/injection, schedule: Q01DX009 (ip), vehicle: other
[9] = dose: 100.0 mg/kg/injection, schedule: Q01DX009 (ip), vehicle: saline with Tween-80
[10] = dose: 50.0 mg/kg/injection, schedule: Q01DX005 (ip), vehicle: saline with Tween-80
[11] = dose: 100.0 mg/kg/injection, schedule: Q01DX005 (ip), vehicle: saline with Tween-80
[12] = dose: 200.0 mg/kg/injection, schedule: Q01DX005 (ip), vehicle: saline with Tween-80

Measured: T/C

CN(CCN(C)C(=S)Cl)C(=S)Cl
inactive: [1] 99 % of control | [2] 100 % of control | [3] 96 % of control

CCCCCCOC(=O)c1ccccc1OP(=O)(N(C)C)N(C)C
inactive: dose: 50.0 mg/kg/injection, schedule: Q01DX005 (ip), vehicle: saline 98 % of control | dose: 100.0 mg/kg/injection, schedule: Q01DX005 (ip), vehicle: saline 101 % of control

CCOC(=O)C(NC(=O)OCc1ccccc1)C(O)C#C[Si](C)(C)C (configuration not stated)
inactive: [4] 95 % of control | [5] 95 % of control | [6] 90 % of control

O=c1[nH]c(=O)c2c(Br)[nH]nc2[nH]1
inactive: dose: 100.0 mg/kg/injection, schedule: Q01DX001 (ip), vehicle: Klucel (hydroxypropylcellulose) (HPC) 110 % of control | dose: 200.0 mg/kg/injection, schedule: Q01DX001 (ip), vehicle: Klucel (hydroxypropylcellulose) (HPC) 103 % of control

ClC1=C(Cl)[C@@]2(Cl)[C@H]3[C@H]4C[C@H]([C@@H]5O[C@H]45)[C@H]3[C@@]1(Cl)C2(Cl)Cl
inactive: dose: 12.5 mg/kg/injection, schedule: Q04DX003 (ip), vehicle: Klucel (hydroxypropylcellulose) (HPC) 95 % of control

Cn1nnnc1N/N=C(\Br)c1ccccc1
inactive: [7] 104 % of control | dose: 400.0 mg/kg/injection, schedule: Q01DX009 (ip), vehicle: saline with Tween-80 104 % of control

Cc1ccc(S(=O)(=O)OC2C(O)CC(=O)C(OC(=O)c3ccccc3)C2OC(=O)c2ccccc2)cc1 (configuration not stated)
inactive: dose: 50.0 mg/kg/injection, schedule: Q01DX001 (ip), vehicle: saline with Tween-80 90 % of control | dose: 100.0 mg/kg/injection, schedule: Q01DX001 (ip), vehicle: saline with Tween-80 89 % of control | dose: 400.0 mg/kg/injection, schedule: Q01DX001 (ip), vehicle: saline with Tween-80 100 % of control

CC1CC(c2ccccc2)C(c2ccc(Cl)cc2)C(=O)O1 (configuration not stated)
inactive: [1] 96 % of control | [2] 100 % of control | [3] 100 % of control

CC(=O)Nc1ccc(S(=O)(=O)N/N=C/C(=O)O)cc1
inactive: dose: 3.13 mg/kg/injection, schedule: Q01DX009 (ip), vehicle: other 101 % of control | dose: 6.25 mg/kg/injection, schedule: Q01DX009 (ip), vehicle: other 111 % of control | [8] 118 % of control

C/C(=N\Nc1ccc([N+](=O)[O-])cc1[N+](=O)[O-])C1CC1
inactive: dose: 25.0 mg/kg/injection, schedule: Q01DX009 (ip), vehicle: saline with Tween-80 117 % of control | dose: 50.0 mg/kg/injection, schedule: Q01DX009 (ip), vehicle: saline with Tween-80 106 % of control | [9] 108 % of control | [7] 109 % of control

CC1(C)C(/C=C\c2ccc(O)cc2)=Nc2ccccc21
inactive: dose: 3.12 mg/kg/injection, schedule: Q01DX009 (ip), vehicle: saline with Tween-80 105 % of control | dose: 6.25 mg/kg/injection, schedule: Q01DX009 (ip), vehicle: saline with Tween-80 100 % of control | dose: 12.5 mg/kg/injection, schedule: Q01DX009 (ip), vehicle: saline with Tween-80 108 % of control

COc1ccc2nc(C)cc(N/N=C/c3ccc(N(CCCl)CCCl)cc3)c2c1
inactive: dose: 0.78 mg/kg/injection, schedule: Q01DX009 (ip), vehicle: Klucel (hydroxypropylcellulose) (HPC) 105 % of control | dose: 1.56 mg/kg/injection, schedule: Q01DX009 (ip), vehicle: Klucel (hydroxypropylcellulose) (HPC) 103 % of control | dose: 3.12 mg/kg/injection, schedule: Q01DX009 (ip), vehicle: Klucel (hydroxypropylcellulose) (HPC) 90 % of control and 98 % of control | dose: 6.25 mg/kg/injection, schedule: Q01DX009 (ip), vehicle: Klucel (hydroxypropylcellulose) (HPC) 90 % of control | dose: 25.0 mg/kg/injection, schedule: Q01DX009 (ip), vehicle: Klucel (hydroxypropylcellulose) (HPC) 90 % of control

CC(C)c1cc(C2C(=O)c3ccccc3C2=O)cc(C(C)C)c1O
inactive: dose: 100.0 mg/kg/injection, schedule: Q04DX002 (ip), vehicle: saline 106 % of control | dose: 200.0 mg/kg/injection, schedule: Q04DX002 (ip), vehicle: saline 114 % of control | dose: 400.0 mg/kg/injection, schedule: Q04DX002 (ip), vehicle: saline 108 % of control

COc1ccc(/C=N/SC(c2ccccc2)(c2ccccc2)c2ccccc2)cc1
inactive: [4] 111 % of control | [5] 99 % of control | [6] 92 % of control

COc1ccc(Cc2coc3ccccc3c2=O)cc1
inactive: dose: 60.0 mg/kg/injection, schedule: Q01DX005 (ip), vehicle: saline with Tween-80 102 % of control | dose: 120.0 mg/kg/injection, schedule: Q01DX005 (ip), vehicle: saline with Tween-80 92 % of control | dose: 240.0 mg/kg/injection, schedule: Q01DX005 (ip), vehicle: saline with Tween-80 100 % of control

COC(=O)C1(C)CCCC2(C)C3=C(CCC12)C(=O)c1occc1CC3 (configuration not stated)
inactive: dose: 0.37 mg/kg/injection, schedule: Q01DX009 (ip), vehicle: Klucel (hydroxypropylcellulose) (HPC) 100 % of control | dose: 0.75 mg/kg/injection, schedule: Q01DX009 (ip), vehicle: Klucel (hydroxypropylcellulose) (HPC) 103 % of control | dose: 1.5 mg/kg/injection, schedule: Q01DX009 (ip), vehicle: Klucel (hydroxypropylcellulose) (HPC) 100 % of control | dose: 3.0 mg/kg/injection, schedule: Q01DX009 (ip), vehicle: Klucel (hydroxypropylcellulose) (HPC) 99 % of control | dose: 6.0 mg/kg/injection, schedule: Q01DX009 (ip), vehicle: Klucel (hydroxypropylcellulose) (HPC) 108 % of control

CC(N)C(=O)NC1C(O)OC(CO)C(O)C1O (configuration not stated)
inactive: dose: 25.0 mg/kg/injection, schedule: Q01DX009 (ip), vehicle: water 101 % of control | dose: 50.0 mg/kg/injection, schedule: Q01DX009 (ip), vehicle: water 104 % of control | dose: 100.0 mg/kg/injection, schedule: Q01DX009 (ip), vehicle: water 111 % of control | dose: 200.0 mg/kg/injection, schedule: Q01DX009 (ip), vehicle: water 104 % of control | dose: 400.0 mg/kg/injection, schedule: Q01DX009 (ip), vehicle: water 101 % of control | dose: 800.0 mg/kg/injection, schedule: Q01DX009 (ip), vehicle: water 93 % of control

Cc1ccccc1N=Cc1ccc(N(C)C)cc1
inactive: [9] 91 % of control | [7] 87 % of control

CCC(C)N=Cc1ccco1 (configuration not stated)
inactive: dose: 25.0 mg/kg/injection, schedule: Q01DX005 (ip), vehicle: Klucel (hydroxypropylcellulose) (HPC) 101 % of control | dose: 50.0 mg/kg/injection, schedule: Q01DX005 (ip), vehicle: Klucel (hydroxypropylcellulose) (HPC) 104 % of control | dose: 100.0 mg/kg/injection, schedule: Q01DX005 (ip), vehicle: Klucel (hydroxypropylcellulose) (HPC) 90 % of control | dose: 200.0 mg/kg/injection, schedule: Q01DX005 (ip), vehicle: Klucel (hydroxypropylcellulose) (HPC) 99 % of control

O=C(NN(CCN(NC(=O)c1ccccc1)C(=O)c1ccccc1)C(=O)c1ccccc1)c1ccccc1
inactive: [10] 99 % of control | [11] 92 % of control | [12] 96 % of control

C=C(C)C1CNC(C(=O)O)C1CC(=O)O (configuration not stated)
inactive: dose: 6.25 mg/kg/injection, schedule: Q01DX009 (ip), vehicle: saline sonified 105 % of control | dose: 12.5 mg/kg/injection, schedule: Q01DX009 (ip), vehicle: saline sonified 90 % of control | dose: 25.0 mg/kg/injection, schedule: Q01DX009 (ip), vehicle: saline sonified 100 % of control

CC(C)C(NC(=O)C(Cc1c[nH]c2ccccc12)NC(=O)OC(C)(C)C)C(=O)NN (stereo not drawn) (Boc-Trp-Val-NHNH2; configuration not given here)
inactive: [8] 98 % of control | dose: 25.0 mg/kg/injection, schedule: Q01DX009 (ip), vehicle: other 98 % of control | dose: 50.0 mg/kg/injection, schedule: Q01DX009 (ip), vehicle: other 91 % of control | dose: 100.0 mg/kg/injection, schedule: Q01DX009 (ip), vehicle: other 89 % of control | dose: 200.0 mg/kg/injection, schedule: Q01DX009 (ip), vehicle: other 94 % of control

O=C1NC(=O)C2(CC3CCCC(C2)N3c2ccccc2)N1 (configuration not stated)
inactive: dose: 100.0 mg/kg/injection, schedule: Q04DX003 (ip), vehicle: DMSO 95 % of control | dose: 200.0 mg/kg/injection, schedule: Q04DX003 (ip), vehicle: DMSO 89 % of control | dose: 400.0 mg/kg/injection, schedule: Q04DX003 (ip), vehicle: DMSO 91 % of control

O=c1n(-c2ccccc2)c2nc3ccccc3nc2n1-c1ccc(Cl)c(Cl)c1
inactive: [10] 90 % of control | [11] 100 % of control | [12] 109 % of control
